Counter-ions that a name gives are not always drawn.
Key:
[1] = test system: multidrug-resistant (MDR) mouse T-lymphoma cells; experiment: Antiproliferative MTT assay, 72 h, MDR cells; format: cell-based; settings: for SI (selectivity index), antiproliferative: MDR with respect to PAR cells; for IC50: Mus musculus, MDR cells, 72 h, MTT, read-out: Antiproliferative effect IC50
Method: (§1) The ABCB1-expressing cell line L5178Y (MDR) was selected by culturing the infected cells with colchicine. The parental L5178 mouse T-cell lymphoma cells and the L5178Y human ABCB1-transfected subline were cultured in McCoy’s 5A medium (Sigma-Aldrich, St Louis, MO, USA) supplemented with 10% heat-inactivated horse serum (Sigma-Aldrich, St Louis, MO, USA), 200 mM L-glutamine (Sigma-Aldrich, St Louis, MO, USA), and a penicillin-streptomycin (Sigma-Aldrich, St Louis, MO, USA) mixture in concentrations of 100 U/L and 10 mg/L, respectively.
(§2) Cytotoxicity and antiproliferative assays were performed following the procedure described in the literature. Parental and multidrug-resistant mouse T-lymphoma cells were used to determine the effect of the arylideneimidazolones on the growth of cells. The effects of increasing concentrations of arylideneimidazolones on cell growth were tested in 96-well flat-bottomed microtiter plates. The compounds were diluted in a volume of 100 μL of medium.
(§3) In the case of the mouse T-lymphoma cells, the two-fold serial dilutions were prepared in 100 μL of McCoy’s 5A, horizontally. The parental (PAR) and multidrug-resistant (MDR) mouse T-lymphoma cells were adjusted to a density of 1 × 10^4 cells (for cytotoxic assay) and 6 × 10^3 (for antiproliferative assay) in 100 μL of McCoy’s 5A medium and were added to each well, with the exception of the medium control wells.
(§4) Cell growth was determined by measuring the optical density (OD) at 540/630 nm with a Multiscan EX ELISA reader (Thermo Labsystems, Cheshire, WA, USA).

[2] = test system: parental (PAR) mouse T-lymphoma cells; experiment: Antiproliferative MTT assay, 72 h, PAR cells; format: cell-based; settings: read-out: Antiproliferative effect IC50
Method: as §1, §2, §3, §4

[3] = Cytotoxicity MTT assay, 24 h, MDR cells; format: cell-based; settings: mouse; for IC50 at 24 h: MDR cells, MTT, read-out: Cytotoxic effect IC50; for selectivity ratio at 24 h: cytotoxic action on MDR with respect to PAR cells, read-out: SI (selectivity index), cytotoxicity
Method: (§5) The cytotoxicity of compounds 7–20 was examined in both aforementioned PAR and MDR mouse T-lymphoma cell lines, using the MTT assay to estimate IC50 values. The selectivity index for cytotoxic action on MDR with respect to PAR cells was calculated (SI, Table 3). […] This range of SI may indicate ABCB1-efflux pump substrate properties for the whole series (7–20), especially distinct in the case of 19 (SI ≤ 0.29), and slightly weaker for 8, 12, 16, and 18.
as §1, with “L5178 mouse T-cell lymphoma cells (PAR) (ECACC Cat. No. 87111908, obtained from FDA, Silver Spring, MD, USA) were transfected with pHa MDR1/A retrovirus, as previously described by Cornwell et al.. The ABCB1-expressing” for “The ABCB1-expressing”, “mg/L, respectively. The cell lines were incubated at 37 °C, in a 5% CO2, 95% air atmosphere.” for “mg/L, respectively.”
as §2, §3
(§6) The culture plates were incubated at 37 °C for 24 h (for cytotoxicity assay) and 72 h (for antiproliferative assay); at the end of the incubation period, 20 μL of MTT (thiazolyl blue tetrazolium bromide, Sigma) solution (from a stock solution of 5 mg/mL) were added to each well. After incubation at 37 °C for 4 h, 100 μL of sodium dodecyl sulfate (SDS) (Sigma) solution (10% in 0.01 M HCI) were added to each well and the plates were further incubated at 37 °C overnight. Cell growth was determined by measuring the optical density (OD) at 540/630 nm with a Multiscan EX ELISA reader (Thermo Labsystems, Cheshire, WA, USA).
(§7) Results have been expressed in terms of IC50, defined as the inhibitory dose that reduces the growth of the cells exposed to the tested compounds by 50%, each representing the mean of a minimum of three independent experiments.

[4] = Cytotoxicity MTT assay, 24 h, PAR cells; format: cell-based; settings: mouse, parental (PAR) L5178 mouse T-cell lymphoma cells, read-out: Cytotoxic effect IC50
Method: as §5
as §1, with “L5178 mouse T-cell lymphoma cells (PAR) (ECACC Cat. No. 87111908, obtained from FDA, Silver Spring, MD, USA) were transfected with pHa MDR1/A retrovirus, as previously described by Cornwell et al.. The ABCB1-expressing” for “The ABCB1-expressing”, “mg/L, respectively. The cell lines were incubated at 37 °C, in a 5% CO2, 95% air atmosphere.” for “mg/L, respectively.”
as §2, §3, §6, §7

[5] = target: ABCB1 efflux pump (Homo sapiens, UniProt P08183); experiment: Rhodamine 123 accumulation assay (flow cytometry); settings: for FAR Quotient (%): FAR of compound related to FAR of VER tested at 20 µM; for FAR (fluorescence activity ratio): rhodamine 123 accumulation, MDR vs PAR mouse T-lymphoma cells
ABCB1 efflux pump, sequence (P08183 whole entry): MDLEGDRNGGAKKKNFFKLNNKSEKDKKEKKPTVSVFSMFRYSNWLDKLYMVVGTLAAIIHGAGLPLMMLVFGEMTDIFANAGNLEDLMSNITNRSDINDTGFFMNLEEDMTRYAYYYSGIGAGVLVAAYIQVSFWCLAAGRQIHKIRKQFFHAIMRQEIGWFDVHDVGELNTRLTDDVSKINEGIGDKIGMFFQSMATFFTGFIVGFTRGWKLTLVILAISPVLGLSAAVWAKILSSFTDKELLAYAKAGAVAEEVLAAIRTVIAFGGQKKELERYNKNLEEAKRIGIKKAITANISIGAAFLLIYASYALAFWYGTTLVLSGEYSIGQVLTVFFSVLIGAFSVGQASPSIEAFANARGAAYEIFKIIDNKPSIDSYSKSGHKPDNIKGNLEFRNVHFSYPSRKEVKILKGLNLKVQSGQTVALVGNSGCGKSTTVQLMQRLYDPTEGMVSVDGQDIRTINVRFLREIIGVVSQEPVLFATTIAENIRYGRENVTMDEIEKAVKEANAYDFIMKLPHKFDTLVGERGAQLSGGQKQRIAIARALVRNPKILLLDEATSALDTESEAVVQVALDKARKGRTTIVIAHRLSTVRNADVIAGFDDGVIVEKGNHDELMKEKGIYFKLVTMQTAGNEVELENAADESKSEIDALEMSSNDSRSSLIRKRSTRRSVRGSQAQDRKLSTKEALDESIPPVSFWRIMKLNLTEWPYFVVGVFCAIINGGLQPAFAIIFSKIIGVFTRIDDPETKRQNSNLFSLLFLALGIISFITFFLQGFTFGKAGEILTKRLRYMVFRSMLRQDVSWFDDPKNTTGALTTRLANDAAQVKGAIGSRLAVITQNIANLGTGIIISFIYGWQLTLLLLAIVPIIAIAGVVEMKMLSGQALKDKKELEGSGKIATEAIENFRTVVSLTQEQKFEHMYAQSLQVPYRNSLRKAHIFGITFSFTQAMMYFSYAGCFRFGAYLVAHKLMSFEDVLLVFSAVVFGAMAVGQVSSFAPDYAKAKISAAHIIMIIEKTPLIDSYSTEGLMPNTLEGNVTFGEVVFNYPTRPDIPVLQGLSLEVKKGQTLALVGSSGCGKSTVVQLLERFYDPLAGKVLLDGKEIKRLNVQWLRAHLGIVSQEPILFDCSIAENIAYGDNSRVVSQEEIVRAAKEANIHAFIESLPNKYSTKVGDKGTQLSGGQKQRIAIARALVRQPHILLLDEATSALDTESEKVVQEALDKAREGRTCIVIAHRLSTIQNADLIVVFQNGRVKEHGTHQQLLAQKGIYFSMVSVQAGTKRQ
Method: The study was carried out on mouse T-lymphoma cell lines, including the parental sensitive line (PAR) and its multidrug-resistant subline (MDR) transfected with the human MDR1 (ABCB1) gene. […] The fluorescence activity ratio (FAR), as a measure of the efflux pump modulating properties, was calculated based on the fluorescence data obtained [23, 24, 25]. […] The parental L5178 mouse T-cell lymphoma cells and the L5178Y human ABCB1-transfected subline were cultured in McCoy’s 5A medium (Sigma-Aldrich, St Louis, MO, USA) supplemented with 10% heat-inactivated horse serum (Sigma-Aldrich, St Louis, MO, USA), 200 mM L-glutamine (Sigma-Aldrich, St Louis, MO, USA), and a penicillin-streptomycin (Sigma-Aldrich, St Louis, MO, USA) mixture in concentrations of 100 U/L and 10 mg/L, respectively.
The potency of the tested compounds as inhibitors of the ABCB1 efflux pump was determined using a fluorescence-based detection system, described previously in the literature [23, 26]. […] The parental (PAR) and multidrug-resistant (MDR) mouse T-lymphoma cells were adjusted to a density of 2 × 10^6/mL, re-suspended in serum-free McCoy’s 5A medium, and distributed in 0.5 mL aliquots into Eppendorf centrifuge tubes. […] The fluorescence intensity of the cell population was measured with a Partec CyFlow flow cytometer (Partec, Munster, Germany). […] The mean fluorescence intensity (%) was calculated for the treated MDR and PAR mouse T-lymphoma cells as compared to the untreated cells.

[6] = concentration 20 µM, VER values for assay group 1 / 2

Row | SMILES | melting point | IC50 [1] | FAR Quotient (%) ([5]; concentration 2 µM) | FAR (fluorescence activity ratio) ([5]; concentration 2 µM) | FAR Quotient (%) ([5]; concentration 20 µM) | FAR (fluorescence activity ratio) [5, 6] | SI (selectivity index), antiproliferative [1] | IC50 [2] | IC50 at 24 h [3] | selectivity ratio at 24 h [3] | IC50 at 24 h [4]
1 | Cl.O=C1N=C(N2CCC(N3CCOCC3)CC2)N/C1=C\c1ccc(-c2ccccc2)cc1 [Compound 8, (Z)-5-(Biphen-4-ylmethylene)-2-(4-morpholinopiperidin-1-yl)-imidazol-4(5H)-one hydrochloride] | 267 to 269 °C | 26 µM | 8.49% | 1.359 | 15.04% | 2.409 | 0.57 | 14.8 µM | 46.4 µM | 0.52 | 24 µM
2 | Cl.O=C1N=C(N2CCN(CCN3CCOCC3)CC2)N/C1=C\c1ccc(-c2ccccc2)cc1 [Compound 9, (Z)-5-(Biphen-4-ylmethylene)-2-(4-(2-morpholinoethyl)piperazin-1-yl)-imidazol-4(5H)-one hydrochloride] | 305 to 307 °C | 16.5 µM | 5.86% | 0.766 | 12.58% | 1.645 | 0.47 | 7.78 µM | 18.1 µM | 0.71 | 12.8 µM
3 | Cl.O=C1N=C(N2CCC(N3CCOCC3)CC2)N/C1=C\c1cccc(Oc2ccccc2)c1 [Compound 10, (Z)-5-(3-Phenoxybenzylidene)-2-(4-morpholinopiperidin-1-yl)-imidazol-4(5H)-one hydrochloride] | 289 to 292 °C | 22.4 µM | 6.92% | 1.108 | 12.44% | 1.992 | 1.18 | 26.4 µM | 63.8 µM | 0.85 | 54 µM
4 | Cl.O=C1N=C(N2CCC(N3CCOCC3)CC2)N/C1=C\c1c2ccccc2cc2ccccc12 [Compound 13, (Z)-5-(Anthracen-10-ylmethylene)-2-(4-morpholinopiperidin-1-yl)-imidazol-4(5H)-one hydrochloride] | 303 to 305 °C | 48.6 µM | 6.04% | 0.968 | 12.94% | 2.073 | 0.36 | 17.4 µM | > 100 µM | ≤ 0.82 | 82.2 µM
5 | NC1=N/C(=C\c2c3ccccc3cc3ccccc23)C(=O)N1CCCN1CCOCC1 [Compound 19] |  | 43.8 µM | 7.94% | 1.272 | 10.08% | 1.615 | 0.33 | 14.4 µM | > 100 µM | ≤ 0.29 | 28.6 µM
6 | Cl.NC1=N/C(=C\c2cc3ccccc3c3ccccc23)C(=O)N1CCCN1CCOCC1 [Compound 20, (Z)-5-(Phenanthren-9-ylmethylene)-2-amino-3-(3-morpholinopropyl)-imidazol-4(5H)-one hydrochloride] | 238 to 240 °C | 17.3 µM | 5.59% | 0.896 | 7.72% | 1.237 | 0.85 | 14.8 µM | 24.9 µM | 0.79 | 19.6 µM
7 | COc1cccc2c1C(=O)c1c(O)c3c(c(O)c1C2=O)C[C@@](O)(C(=O)CO)C[C@@H]3O[C@H]1C[C@H](N)[C@H](O)[C@H](C)O1 [DOX, doxorubicin, reference compound] |  | 1.75 µM |  |  |  |  | 0.16 | 0.28 µM | 2.14 µM | 0.33 | 0.7 µM

Second part, led by results:

Row | melting point | IC50 [1] | FAR Quotient (%) ([5]; concentration 2 µM) | FAR (fluorescence activity ratio) ([5]; concentration 2 µM) | FAR Quotient (%) ([5]; concentration 20 µM) | FAR (fluorescence activity ratio) [5, 6] | SMILES | SI (selectivity index), antiproliferative [1] | IC50 [2] | IC50 at 24 h [3] | selectivity ratio at 24 h [3] | IC50 at 24 h [4]
8 | 266 to 270 °C |  |  |  |  |  | NC1=N/C(=C\c2ccc(-c3ccccc3)cc2)C(=O)N1CCN1CCOCC1 (as salt: hydrochloride) [Compound 14] |  |  |  |  | 
9 | 248 to 252 °C | 26.3 µM | 7.31% | 0.955 | 7.09% | 0.927 | Cl.O=C1NC(N2CCOCC2)=N/C1=C\c1ccc(-c2ccccc2)cc1 [Compound 7, (Z)-5-(Biphen-4-ylmethylene)-2-morpholino-3H-imidazol-4(5H)-one hydrochloride] | 0.67 | 17.6 µM | 54.2 µM | 0.99 | 53.5 µM
10 |  | 27.9 µM | 6.22% | 0.814 | 6.48% | 0.847 | NC1=N/C(=C\c2ccc(-c3ccccc3)cc2)C(=O)N1CCN1CCOCC1 [Compound 14] | 0.89 | 24.9 µM | 57.4 µM | 0.64 | 36.9 µM
11 | 248 to 252 °C | 13.6 µM | 6.78% | 0.887 | 16.98% | 2.221 | Cl.NC1=N/C(=C\c2ccc(-c3ccccc3)cc2)C(=O)N1CCCN1CCOCC1 [Compound 15, (Z)-5-(Biphen-4-ylmethylene)-2-amino-3-(3-morpholinopropyl)-imidazol-4(5H)-one hydrochloride] | 0.75 | 10.3 µM | 20.8 µM | 0.84 | 17.5 µM
12 |  | 12.2 µM | 7.09% | 0.927 | 18.55% | 2.426 | NC1=N/C(=C\c2cccc(Oc3ccccc3)c2)C(=O)N1CCCN1CCOCC1 [Compound 16] | 0.94 | 11.4 µM | 31.3 µM | 0.51 | 16 µM
13 | 210 to 212 °C | 14.2 µM | 5.80% | 0.929 | 14.37% | 2.301 | Cl.NC1=N/C(=C\c2ccc(Oc3ccccc3)cc2)C(=O)N1CCCN1CCOCC1 [Compound 17, (Z)-5-(4-Phenoxybenzylidene)-2-amino-3-(3-morpholinopropyl)-imidazol-4(5H)-one hydrochloride] | 0.85 | 12.2 µM | 23.4 µM | 0.92 | 21.5 µM

Reference: article PMC7249047, “Search for ABCB1 Modulators Among 2-Amine-5-Arylideneimidazolones as a New Perspective to Overcome Cancer Multidrug Resistance” (Molecules, 2020)
